Common to all, as to format: binding, SARS-COV-2
One assay addresses SRBD - omicron.
In assay [1] the target is SARS-Cov2 SRBD and anti-alpha-Gal antibody (Severe acute respiratory syndrome coronavirus 2, UniProt P0DTC2).
The subject of assay [2] is Omicron S1/S2 ECD and anti-alpha-Gal antibody.

The pKd is the Kd on a negative log10 scale, so that one unit is a factor of ten. The low end stands for a high Kd, the high end for a low Kd.

pKd: −log10 of the molar value. Read-outs that look alike come from different tables or passages of the source.

`COC[C@H](NC(=O)[C@@H](CCCCN)NC(=O)[C@H]1c2ccccc2C(=O)N(CCCNC(=O)Cc2ccc(CNC(=O)[C@@H](NC(=O)[C@@H](CCCCN)NC(=O)[C@H]3c4ccccc4C(=O)N(CCCNC(=O)Cc4ccc(CNC(=O)[C@H](CC5CC5)NC(=O)[C@H]5c6ccccc6C(=O)N(CCCNC(=O)[C@@H](C)NC(=O)Cc6ccc(CNC(=O)[C@H](C)NC(=O)[C@@H](CCCCN)NC(=O)[C@H]7c8ccccc8C(=O)N(CCCNC(=O)Cc8ccc(CNC(=O)[C@H](C)NC(=O)CNC(=O)[C@H]9c%10ccccc%10C(=O)N(CCCNC(=O)Cc%10ccc(CNC(=O)[C@H](C)NC(=O)[C@@H](CCC(=O)O)NC(=O)[C@H]%11c%12ccccc%12C(=O)N(CCCNC(=O)Cc%12ccc(CNC(=O)[C@H](Cc%13ccc(F)cc%13)NC(=O)[C@H]%13c%14ccccc%14C(=O)N(CCCNC(=O)[C@@H](CCC(=O)O)NC(=O)Cc%14ccc(CNC(=O)[C@H](C)NC(=O)CNC(=O)[C@H]%15c%16ccccc%16C(=O)N(CCCN)[C@@H]%15c%15ccc(CCC(=O)O)cc%15)cc%14)[C@@H]%13c%13cccc(Oc%14ccccc%14)c%13)cc%12)[C@@H]%11c%11ccc(CCC(=O)O)cc%11)cc%10)[C@@H]9c9cccnc9)cc8)[C@@H]7c7ccc(CCC(=O)O)cc7)cc6)[C@@H]5c5cccc(Oc6ccccc6)c5)cc4)[C@@H]3c3ccccc3)C(C)C)cc2)[C@@H]1c1ccc(O)cc1)C(=O)NCc1ccc(CC(N)=O)cc1` [Technein 16838-89-7] had a negative-log Kd (pKd) at SRBD - omicron (BLI, SRBD - omicron, global 1:2 fitting) of 8.15.
Take `COC[C@H](NC(=O)[C@H]1c2ccccc2C(=O)N(CCCNC(=O)[C@@H](C)NC(=O)Cc2ccc(CNC(=O)[C@H](Cc3ccc(F)cc3)NC(=O)[C@H]3c4ccccc4C(=O)N(CCCNC(=O)CNC(=O)Cc4ccc(CNC(=O)[C@H](Cc5ccc(F)cc5)NC(=O)[C@H]5c6ccccc6C(=O)N(CCCNC(=O)[C@@H](CCC(=O)O)NC(=O)Cc6ccc(CNC(=O)[C@H](C)NC(=O)[C@H]7c8ccccc8C(=O)N(CCCNC(=O)[C@@H](C)N)[C@@H]7c7ccc(CCC(=O)O)cc7)cc6)[C@@H]5c5cccc(Oc6ccccc6)c5)cc4)[C@@H]3c3ccc(O)cc3)cc2)[C@@H]1c1ccc(O)cc1)C(=O)NCc1ccc(CC(=O)NCC(=O)NCCCN2C(=O)c3ccccc3[C@H](C(=O)N[C@@H](CC3CC3)C(=O)NCc3ccc(CC(=O)N[C@H](CCC(=O)O)C(=O)NCCCN4C(=O)c5ccccc5[C@H](C(=O)N[C@@H](C)C(=O)NCc5ccc(CC(=O)NCCCN6C(=O)c7ccccc7[C@H](C(=O)N[C@H](CCCCN)C(=O)N[C@H](C(=O)NCc7ccc(CC(=O)N[C@H](C)C(=O)NCCCN8C(=O)c9ccccc9[C@H](C(=O)N[C@@H](CC9CC9)C(=O)NCc9ccc(CC(N)=O)cc9)[C@H]8c8ccc(CCC(=O)O)cc8)cc7)C(C)C)[C@H]6c6ccccc6)cc5)[C@H]4c4cccnc4)cc3)[C@H]2c2cccnc2)cc1` [Technein 16838-89-8]: the pKd at SRBD - omicron was 8.40. The “antibody repurposing of alpha Gal antibodies (ELISA signal)” value in assay [1] and in assay [2] was “significantly lower levels of antibody repurposing” throughout.

The record behind these values is patent publication US20260042867A1, “ANTIBODY REPURPOSING” (priority 2022, published 2026).
